Earlier results as cited in patent publication US12403114B2, “Cannabinoid acid ester compositions and uses thereof” (EPM (IP), INC., priority 2019, dated 2025).

Molecular target: T1, serotonin 5-HT1A Receptor (Homo sapiens, UniProt P08908)
T1 sequence (P08908 1-422): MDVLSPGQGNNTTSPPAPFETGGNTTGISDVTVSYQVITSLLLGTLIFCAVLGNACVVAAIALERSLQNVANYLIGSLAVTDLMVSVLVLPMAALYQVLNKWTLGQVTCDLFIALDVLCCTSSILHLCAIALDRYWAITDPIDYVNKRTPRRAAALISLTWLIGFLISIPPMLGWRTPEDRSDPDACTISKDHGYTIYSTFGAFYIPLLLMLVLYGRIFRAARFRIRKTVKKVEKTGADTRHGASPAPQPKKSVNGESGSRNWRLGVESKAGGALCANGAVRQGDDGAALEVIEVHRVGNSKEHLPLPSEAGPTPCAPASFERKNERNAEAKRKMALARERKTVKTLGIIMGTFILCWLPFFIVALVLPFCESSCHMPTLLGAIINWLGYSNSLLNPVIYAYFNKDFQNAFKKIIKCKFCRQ
Conditions: CBDA activates the receptor; background statement; cited from earlier work

SMILES: C=C(C)C1CCC(C)=CC1c1c(O)cc(CCCCC)c(C(=O)O)c1O (stereo not shown) [CBDA, 2,4-dihydroxy-3-[3-methyl-6-prop-1-en-2-ylcyclohex-2-en-1-yl]-6-pentylbenzoic acid]
- affinity for the 5-HT1A receptor relative to CBD: significantly greater
